Where “and” joins values, the source holds several entries; their conditions need not be identical. Equal values may be shown once. Numbers after ± are expanded uncertainties.
Tests used:
[1] = for Triple point temperature: DSC
[2] = Molar enthalpy of transition or fusion; conditions: Crystal; DSC

c1ccc2nc3ccccc3cc2c1 [acridine]
[1]
Conditions | vapor or sublimation pressure
292.1 K, Crystal, Calculated from knudsen effusion weight loss | 4e-06 ± 9e-07 kPa
293 K, Crystal, Calculated from knudsen effusion weight loss | 4.7e-06 ± 1e-06 kPa
295.2 K, Crystal, Calculated from knudsen effusion weight loss | 6.3e-06 ± 1.3e-06 kPa
296.1 K, Crystal, Calculated from knudsen effusion weight loss | 6.7e-06 ± 1.4e-06 kPa
298.4 K, Crystal, Calculated from knudsen effusion weight loss | 9.6e-06 ± 2e-06 kPa
300 K, Crystal, Calculated from knudsen effusion weight loss | 1.2e-05 ± 3e-06 kPa
301.3 K, Crystal, Calculated from knudsen effusion weight loss | 1.4e-05 ± 3e-06 kPa
303 K, Crystal, Calculated from knudsen effusion weight loss | 1.8e-05 ± 4e-06 kPa
304.2 K, Crystal, Calculated from knudsen effusion weight loss | 2e-05 ± 4e-06 kPa
305.9 K, Crystal, Calculated from knudsen effusion weight loss | 2.6e-05 ± 5e-06 kPa
306.2 K, Crystal, Calculated from knudsen effusion weight loss | 2.6e-05 ± 5e-06 kPa
308.1 K, Crystal, Calculated from knudsen effusion weight loss | 3.3e-05 ± 7e-06 kPa
308.9 K, Crystal, Calculated from knudsen effusion weight loss | 3.7e-05 ± 8e-06 kPa
311.1 K, Crystal, Calculated from knudsen effusion weight loss | 4.7e-05 ± 1e-05 kPa
311.9 K, Crystal, Calculated from knudsen effusion weight loss | 5.3e-05 ± 1.1e-05 kPa
314.1 K, Crystal, Calculated from knudsen effusion weight loss | 6.8e-05 ± 1.4e-05 kPa
314.8 K, Crystal, Calculated from knudsen effusion weight loss | 7.1e-05 ± 1.5e-05 kPa
315.8 K, Crystal, Calculated from knudsen effusion weight loss | 8.4e-05 ± 1.8e-05 kPa
317 K, Crystal, Calculated from knudsen effusion weight loss | 9.3e-05 ± 1.9e-05 kPa
317.8 K, Crystal, Calculated from knudsen effusion weight loss | 9.8e-05 ± 2.1e-05 kPa
318.1 K, Crystal, Calculated from knudsen effusion weight loss | 9.7e-05 ± 2e-05 kPa
318.8 K, Crystal, Calculated from knudsen effusion weight loss | 0.000119 ± 2.5e-05 kPa
319.4 K, Crystal, Calculated from knudsen effusion weight loss | 0.00011 ± 2e-05 kPa
320 K, Crystal, Calculated from knudsen effusion weight loss | 0.000134 ± 2.8e-05 kPa
320.8 K, Crystal, Calculated from knudsen effusion weight loss | 0.000138 ± 2.8e-05 kPa and 0.000148 ± 3e-05 kPa
321.1 K, Crystal, Calculated from knudsen effusion weight loss | 0.00014 ± 3e-05 kPa
322.3 K, Crystal, Calculated from knudsen effusion weight loss | 0.00015 ± 3e-05 kPa
322.9 K, Crystal, Calculated from knudsen effusion weight loss | 0.000179 ± 3.7e-05 kPa
324 K, Crystal, Calculated from knudsen effusion weight loss | 0.00019 ± 4e-05 kPa
325.1 K, Crystal, Calculated from knudsen effusion weight loss | 0.00021 ± 4e-05 kPa
327 K, Crystal, Calculated from knudsen effusion weight loss | 0.00027 ± 6e-05 kPa
328.1 K, Crystal, Calculated from knudsen effusion weight loss | 0.0003 ± 6e-05 kPa
329.9 K, Crystal, Calculated from knudsen effusion weight loss | 0.00036 ± 7e-05 kPa
331.1 K, Crystal, Calculated from knudsen effusion weight loss | 0.0004 ± 8e-05 kPa
332.9 K, Crystal, Calculated from knudsen effusion weight loss | 0.00048 ± 0.0001 kPa
334 K, Crystal, Calculated from knudsen effusion weight loss | 0.00057 ± 0.00012 kPa
335.9 K, Crystal, Calculated from knudsen effusion weight loss | 0.0007 ± 0.00014 kPa
337.1 K, Crystal, Calculated from knudsen effusion weight loss | 0.00075 ± 0.00016 kPa
338.9 K, Crystal, Calculated from knudsen effusion weight loss | 0.00091 ± 0.00019 kPa
340.2 K, Crystal, Calculated from knudsen effusion weight loss | 0.00106 ± 0.00023 kPa
341.7 K, Crystal, Calculated from knudsen effusion weight loss | 0.00122 ± 0.00027 kPa
343 K, Crystal, Calculated from knudsen effusion weight loss | 0.00145 ± 0.00032 kPa
344.6 K, Crystal, Calculated from knudsen effusion weight loss | 0.00162 ± 0.00035 kPa
346.1 K, Crystal, Calculated from knudsen effusion weight loss | 0.0019 ± 0.00042 kPa
347.6 K, Crystal, Calculated from knudsen effusion weight loss | 0.0022 ± 0.0005 kPa
348.8 K, Crystal, Calculated from knudsen effusion weight loss | 0.0025 ± 0.0006 kPa
388.2 K, Liquid, Rate of evaporation | 0.067 ± 0.027 kPa
391.2 K, Liquid, Rate of evaporation | 0.08 ± 0.033 kPa
395.2 K, Liquid, Rate of evaporation | 0.099 ± 0.04 kPa
399.1 K, Liquid, Rate of evaporation | 0.119 ± 0.048 kPa
402.1 K, Liquid, Rate of evaporation | 0.147 ± 0.06 kPa
405 K, Liquid, Rate of evaporation | 0.17 ± 0.069 kPa
408 K, Liquid, Rate of evaporation | 0.197 ± 0.08 kPa
412 K, Liquid, Rate of evaporation | 0.241 ± 0.098 kPa
416 K, Liquid, Rate of evaporation | 0.292 ± 0.12 kPa
419.9 K, Liquid, Rate of evaporation | 0.338 ± 0.14 kPa
422.9 K, Liquid, Rate of evaporation | 0.396 ± 0.16 kPa
425.9 K, Liquid, Rate of evaporation | 0.443 ± 0.18 kPa
428.9 K, Liquid, Rate of evaporation | 0.51 ± 0.21 kPa
431.8 K, Liquid, Rate of evaporation | 0.601 ± 0.24 kPa

Conditions | Triple point temperature [K]
[1], Crystal | 382 ± 2.1

Conditions | Molar enthalpy of transition or fusion [kcal/mol]
[2] | 4.9 ± 0.359

c1ccc2c(c1)cnc1ccccc12 [phenanthridine]
[1]
Conditions | vapor or sublimation pressure
318.6 K, Crystal, Torsion effusion method | 3.8e-05 ± 1.3e-05 kPa
322.1 K, Crystal, Torsion effusion method | 5.7e-05 ± 1.9e-05 kPa
323.2 K, Crystal, Torsion effusion method | 7.6e-05 ± 2.4e-05 kPa
324 K, Crystal, Torsion effusion method | 7.6e-05 ± 2.2e-05 kPa
325 K, Crystal, Torsion effusion method | 8.5e-05 ± 3e-05 kPa
325.2 K, Crystal, Torsion effusion method | 9.4e-05 ± 3.1e-05 kPa
325.9 K, Crystal, Torsion effusion method | 0.000104 ± 2.9e-05 kPa
327 K, Crystal, Torsion effusion method | 0.000104 ± 3.1e-05 kPa
327.6 K, Crystal, Torsion effusion method | 0.000124 ± 3.2e-05 kPa
329.1 K, Crystal, Torsion effusion method | 0.000133 ± 4.5e-05 kPa
329.3 K, Crystal, Torsion effusion method | 0.000151 ± 4.7e-05 kPa
330 K, Crystal, Torsion effusion method | 0.000142 ± 4.4e-05 kPa
330.9 K, Crystal, Torsion effusion method | 0.000181 ± 5.4e-05 kPa
331.9 K, Crystal, Torsion effusion method | 0.00019 ± 5.1e-05 kPa
332.6 K, Crystal, Torsion effusion method | 0.000208 ± 6.3e-05 kPa
332.9 K, Crystal, Torsion effusion method | 0.000228 ± 6.7e-05 kPa
333.9 K, Crystal, Torsion effusion method | 0.00025 ± 7e-05 kPa
334.1 K, Crystal, Torsion effusion method | 0.00023 ± 8e-05 kPa
334.7 K, Crystal, Torsion effusion method | 0.00025 ± 8e-05 kPa
335 K, Crystal, Torsion effusion method | 0.00026 ± 8e-05 kPa
335.7 K, Crystal, Torsion effusion method | 0.0003 ± 9e-05 kPa
335.9 K, Crystal, Torsion effusion method | 0.00028 ± 7e-05 kPa
337 K, Crystal, Torsion effusion method | 0.00034 ± 0.0001 kPa
337.9 K, Crystal, Torsion effusion method | 0.00038 ± 0.0001 kPa
338.4 K, Crystal, Torsion effusion method | 0.00036 ± 0.00012 kPa
339.8 K, Crystal, Torsion effusion method | 0.00045 ± 0.00014 kPa
340 K, Crystal, Torsion effusion method | 0.00044 ± 0.00014 kPa and 0.00047 ± 0.00014 kPa
341.4 K, Crystal, Torsion effusion method | 0.00053 ± 0.00018 kPa
341.5 K, Crystal, Torsion effusion method | 0.00055 ± 0.00018 kPa
342.2 K, Crystal, Torsion effusion method | 0.00061 ± 0.0002 kPa
342.9 K, Crystal, Torsion effusion method | 0.00061 ± 0.0002 kPa
343.2 K, Crystal, Torsion effusion method | 0.00072 ± 0.00021 kPa
345.3 K, Crystal, Torsion effusion method | 0.00085 ± 0.00025 kPa
345.5 K, Crystal, Torsion effusion method | 0.00079 ± 0.00024 kPa
347.1 K, Crystal, Torsion effusion method | 0.001 ± 0.00027 kPa
347.3 K, Crystal, Torsion effusion method | 0.00093 ± 0.00025 kPa
348.2 K, Crystal, Torsion effusion method | 0.00115 ± 0.00035 kPa
349.4 K, Crystal, Torsion effusion method | 0.00128 ± 0.00042 kPa
388.1 K, Liquid, Rate of evaporation | 0.038 ± 0.015 kPa
393.1 K, Liquid, Rate of evaporation | 0.05 ± 0.02 kPa
398.1 K, Liquid, Rate of evaporation | 0.065 ± 0.026 kPa
403.1 K, Liquid, Rate of evaporation | 0.086 ± 0.035 kPa
408.1 K, Liquid, Rate of evaporation | 0.113 ± 0.046 kPa
413.1 K, Liquid, Rate of evaporation | 0.145 ± 0.059 kPa
418.1 K, Liquid, Rate of evaporation | 0.187 ± 0.076 kPa
423.1 K, Liquid, Rate of evaporation | 0.24 ± 0.098 kPa
428.1 K, Liquid, Rate of evaporation | 0.302 ± 0.12 kPa
433.1 K, Liquid, Rate of evaporation | 0.369 ± 0.15 kPa
438.1 K, Liquid, Rate of evaporation | 0.469 ± 0.19 kPa
443.1 K, Liquid, Rate of evaporation | 0.567 ± 0.23 kPa
448.1 K, Liquid, Rate of evaporation | 0.728 ± 0.3 kPa
453.1 K, Liquid, Rate of evaporation | 0.854 ± 0.35 kPa

Conditions | Triple point temperature [K]
[1], Crystal | 379.1 ± 2.1

Conditions | Molar enthalpy of transition or fusion [kcal/mol]
[2] | 5.93 ± 0.502

c1ccc2nc3ccccc3nc2c1 [phenazine]
[1]
Conditions | vapor or sublimation pressure
291.8 K, Crystal, Calculated from knudsen effusion weight loss | 9.4e-07 ± 2.1e-07 kPa
293.5 K, Crystal, Calculated from knudsen effusion weight loss | 1.3e-06 ± 3e-07 kPa
296.3 K, Crystal, Calculated from knudsen effusion weight loss | 1.6e-06 ± 3e-07 kPa
300.3 K, Crystal, Calculated from knudsen effusion weight loss | 2.9e-06 ± 6e-07 kPa
303.5 K, Crystal, Calculated from knudsen effusion weight loss | 4.7e-06 ± 1e-06 kPa
306.3 K, Crystal, Calculated from knudsen effusion weight loss | 6.1e-06 ± 1.3e-06 kPa
310.3 K, Crystal, Calculated from knudsen effusion weight loss | 1.1e-05 ± 2e-06 kPa
313.3 K, Crystal, Calculated from knudsen effusion weight loss | 1.81e-05 ± 3.8e-06 kPa
316.2 K, Crystal, Calculated from knudsen effusion weight loss | 2.24e-05 ± 4.9e-06 kPa and 2.6e-05 ± 6e-06 kPa
320.1 K, Crystal, Calculated from knudsen effusion weight loss | 3.8e-05 ± 8e-06 kPa and 4.6e-05 ± 1e-05 kPa
323.1 K, Crystal, Calculated from knudsen effusion weight loss | 6.6e-05 ± 1.3e-05 kPa
323.6 K, Crystal, Calculated from knudsen effusion weight loss | 6.5e-05 ± 1.3e-05 kPa
326.1 K, Crystal, Calculated from knudsen effusion weight loss | 8.9e-05 ± 1.9e-05 kPa
330 K, Crystal, Calculated from knudsen effusion weight loss | 0.00015 ± 3e-05 kPa
332.9 K, Crystal, Calculated from knudsen effusion weight loss | 0.000196 ± 4.1e-05 kPa
335.9 K, Crystal, Calculated from knudsen effusion weight loss | 0.000264 ± 5.5e-05 kPa
339.8 K, Crystal, Calculated from knudsen effusion weight loss | 0.0004 ± 8e-05 kPa
342.8 K, Crystal, Calculated from knudsen effusion weight loss | 0.00056 ± 0.00012 kPa
450.3 K, Liquid, Rate of evaporation | 2.018 ± 0.82 kPa
451.4 K, Liquid, Rate of evaporation | 2.101 ± 0.85 kPa
452.5 K, Liquid, Rate of evaporation | 2.186 ± 0.89 kPa
454.8 K, Liquid, Rate of evaporation | 2.441 ± 0.99 kPa
456.7 K, Liquid, Rate of evaporation | 2.618 ± 1.1 kPa
458.9 K, Liquid, Rate of evaporation | 2.836 ± 1.2 kPa
460.1 K, Liquid, Rate of evaporation | 3.041 ± 1.2 kPa
462.6 K, Liquid, Rate of evaporation | 3.328 ± 1.4 kPa
464.2 K, Liquid, Rate of evaporation | 3.533 ± 1.4 kPa
466.7 K, Liquid, Rate of evaporation | 3.944 ± 1.6 kPa
469.1 K, Liquid, Rate of evaporation | 4.316 ± 1.8 kPa

Conditions | Triple point temperature [K]
[1], Crystal | 446.4 ± 2.1

Conditions | Molar enthalpy of transition or fusion [kcal/mol]
[2] | 4.61 ± 0.263

From the NIST ThermoML archive (doi:10.1016/j.tca.2016.05.001)
